# Measurements: patent US20080255206A1, “Rxr Agonists and Antagonists, Alone or in Combination with Ppar Ligands, in the Treatment of Metabolic and Cardiovascular Diseases” (priority 2005, published 2008)
# Read-outs that look alike come from different tables or passages of the source.
# Key:
# [1] = tested on: NMRI mice; experiment: 2 weeks toxicology study in NMRI mice; type: in vivo
# Experimental: Oral administration of the RXR agonist compound 1 is tested by daily oral gavage in a 2 weeks toxicology study in NMRI mice. […] This signifies a favourable effect on the lipid profile, which is important in therapy of diabetes and lipid disorders.
# [2] = Pharmacokinetics, single dose administration; type: in vivo; conditions: plasma; for concentration at 1 h: po, microsuspension in oil, read-out: Plasma level one hour after oral administration
# Experimental: Single dose administration: Compound 15 is administered orally as a microsuspension in oil. When measured one hour after oral administration, plasma levels are 480 ng/ml with 20 mg/kg and 2755 ng/ml with 100 mg/kg. There is a dose proportional increase in plasma levels of compound 15 within this dose range.
# [3] = Pharmacokinetics, daily oral gavage for 4 weeks in rats; type: in vivo
# Experimental: Daily administration of compound 15 by oral gavage for 4 weeks in rats: Compound 15 is administered daily by oral gavage as an oily suspension in doses of 50, 250, 500 and 750 mg/kg/day for 4 weeks in rats. Plasma samples are taken 2 hours post dosing on days 1, 22 and 26 and analysed by a gradient HPLC method with UV detection. […] With the 250 mg/kg/day dosage, plasma levels change from 4945 ng/ml on day 1 to 4190 ng/ml on day 22 and to 4530 ng/ml on day 26. Exposure of the rats to compound 15 results in a dose-proportional way in the doses between 50 and 250 mg/kg/day.
# [4] = tested on: c-Jun mRNA expression; experiment: Semi chronic inflammation of mouse ears, c-Jun mRNA (northern blot); type: in vivo, C57BL/6 mice; conditions: TPA 0.005% + test compound 0.05%
# Experimental: (§1) […] mice of the C57BL/6 strain are used. Inflammation is induced on mouse ears with either AtRA, 9-cis RA or TPA by topical application. Inflammation is measured objectively by determination of the activity of myeloperoxidase (MPO) being directly correlated to the infiltration of polymorphonuclear white blood cells and by the determination of mRNA expression of c-jun, a protein implicated in the AP-1 transduction pathway according to known methods, see e.g. P. L. Stanley et al., Skin Pharmacol. 4, 262-271 (1991) (MPO assay), N. Basset-Sequin et al., J. Invest. Dermatol. 94, 418-422 (1990), F. J. Rauscher et al., Cell 52, 471-480 […], P. Sassone-Corn et al., Nature 326, 507-510 (1987), and M. Pfahl, Endocr. Rev. 14, 651-658, 1993, which are incorporated by reference regarding the experimental method.
# (§2) The anti-inflammatory effect of topical RXR antagonists is tested by determination of myeloperoxidase activity in % of vehicle controls. The effect of the RXR antagonist compound 15 is also compared with the well known anti-inflammatory effect of the two corticosteroids, clobetasol dipropionate and betamethasone propionate. For induction of inflammation, AtRA and TPA are applied topically to the skin and the administration of the test compounds, the RXR antagonist compound 15 and the two corticosteroids are given in the following order, according to the schedule, described in: Skin Pharmacol 1991; 4 (4): 262-271, Stanley P L. et.al.: RA or TPA is administered on days 0, 2, 4, 7 and 9, compound 15 or corticosteroids are administered twice daily on day 7, day 8 and day 9 and once on day 10 in the morning. The mice are sacrificed on day 10 in the afternoon.
# In the same experiment, the expression of c-Jun mRNA is determined by northern blot and expressed in percent of the vehicle controls.
# [5] = tested on: rats; experiment: 4-weeks toxicology study in rats, oral gavage; type: in vivo
# Description: […]. […] This symptom of hair loss is observed, dose-dependently, with all doses. Clinical pathology is limited to minor disturbances.
# [6] = tested on: normal mice; experiment: 2-weeks toxicity study in normal mice, intraperitoneal; conditions: daily i.p.
# [7] = Pharmacokinetics, daily oral gavage for 14 days in mice; conditions: mouse, in vivo; for AUC / Cmax: oral
# Experimental: Daily administration of compound 15 by oral gavage for 14 days in mice: Compound 15 is administered daily by oral gavage as a microsuspension in oil in doses of 30 to 400 mg/kg/day for 14 days in mice.
# [8] = tested on: myeloperoxidase (MPO) activity; experiment: Semi chronic inflammation of mouse ears, MPO activity; type: in vivo, C57BL/6 mice; conditions: 11 d
# Experimental: as §1
# In the “acute inflammation” test, mice are treated topically (epicutaneously), orally or intraperitoneally, daily for 4 days. In the “semi chronic inflammation” test, mice are treated topically according to the schedules given below. For each experiment, a group of at least 4 mice of both sexes are used in the defined condition, regarding placebo, vehicle control, compound, topical formulation, oral formulation, dosage and concentration. The topical vehicle consists of ethanol/PEG 400/water (3:1:1).
# as §2
smiles,measurement,setting,value
"CC1=C(/C=C/C2=C(/C=C/C(C)=C/C(=O)O)CCCCC2)C(C)(C)CCC1 [Compound 1, (2E,4E)-3-methyl-5-[2-[(E)-2-(2,6,6-trimethyl-1-cyclohexen-1-yl)ethenyl]-1-cyclohepten-1-yl]-2,4-pentadienoic acid]","Lipid profile (triglycerides, HDL-, LDL-cholesterol)",[1]; all treated groups,"tendency to a decrease in triglycerides, an increase in HDL-cholesterol and a decrease in LDL-cholesterol"
same,Signs or symptoms of the hypervitaminosis A syndrome,[1]; all treated groups,no signs or symptoms of the hypervitaminosis A syndrome
same,"Tolerability, oral","[1]; daily oral gavage, 2 weeks, up to 400 mg/kg/day",very well tolerated
same,"Tolerability, intraperitoneal","[1]; intraperitoneally, 200 mg/kg/day",well tolerated
same,"Body weight, intraperitoneal","[1]; intraperitoneally, 400 mg/kg/day",retarded body weight increase
"CCCCOc1c(\C(C)=C/C=C/C(C)=C/C(=O)O)cc(C(C)(C)C)cc1C(C)(C)C [Compound 15, (2E,4E,6Z)-7-[2-butoxy-3,5-bis(1,1-dimethylethyl)phenyl]-3-methyl-2,4,6-octatrienoic acid]",concentration at 1 h,[2]; single dose 20 mg/kg,480 ng/mL
same,concentration at 1 h,[2]; single dose 100 mg/kg,2760 ng/mL
same,bioavailability,"[2]; at the mentioned low doses, intravenous versus oral PK data",40%
same,Plasma level 2 hours post dosing,"[3]; 50 mg/kg/day, day 1",2205 ng/mL
same,Plasma level 2 hours post dosing,"[3]; 50 mg/kg/day, day 22",2235 ng/mL
same,Plasma level 2 hours post dosing,"[3]; 50 mg/kg/day, day 26",2505 ng/mL
same,Plasma level 2 hours post dosing,"[3]; 250 mg/kg/day, day 1",4945 ng/mL
same,Plasma level 2 hours post dosing,"[3]; 250 mg/kg/day, day 22",4190 ng/mL
same,Plasma level 2 hours post dosing,"[3]; 250 mg/kg/day, day 26",4530 ng/mL
same,c-Jun mRNA expression (% of vehicle treated mice),[4],88 % of vehicle treated mice
same,Haematology and clinical chemistry,[5]; 4 weeks oral gavage,"No abnormalities in haematology, no abnormalities in clinical chemistry"
same,Histopathology,[5]; 4 weeks oral gavage,only some changes in the 500/750 mg/kg dose group
same,"Transaminases, triglycerides and cholesterol",[5]; 4 weeks oral gavage,"No increase in transaminases, triglycerides, and cholesterol"
same,"Tolerability, oral","[5]; daily doses of 50, 250, 500, eventually 750 mg/kg, 4 weeks",well tolerated with the exception of patchy alopecia
same,Signs or symptoms of hypervitaminosis A,[6],"no signs or symptoms of hypervitaminosis A on skin, mucous membranes or bones with the exception of hair loss"
same,"Tolerability, intraperitoneal",[6]; doses up to 400 mg/kg,well tolerated
same,AUC,[7]; 30 mg/kg,13200 ng·h/mL
same,Cmax,[7]; 30 mg/kg,4440 ng/mL
same,AUC,[7]; 100 mg/kg,25700 ng·h/mL
same,Cmax,[7]; 100 mg/kg,8920 ng/mL
same,Tmax,"[7]; oral gavage 30 to 400 mg/kg/day, 14 days",0.5 to 2 h
same,MPO activity (% vehicle treated mice),[8]; At RA 0.05% + test compound 0.05% topical,184 ± 72 % vehicle treated mice
same,MPO activity (% vehicle treated mice),[8]; TPA 0.005% + test compound 0.05% topical,345 ± 81 % vehicle treated mice
